Assay results published in PubChem BioAssay (NCI).
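How tested: cells in 96-well plates exposed to compound for 48 hours at five concentrations. TGI denotes the concentration required for complete inhibition of growth.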

Key:
Experiment in all cases: inhibition of tumour cell growth, NCI panel, 48 h
[1] = system: M14 melanoma
[2] = system: SW-620 colon
[3] = system: A549 NSCLC
[4] = system: NCI/ADR-RES ovarian
[5] = system: HS 578T breast
[6] = system: SK-OV-3 ovarian
[7] = system: HOP-92 NSCLC
[8] = system: EKVX NSCLC
[9] = system: U251 CNS
[10] = system: MALME-3M melanoma
[11] = system: BT-549 breast
[12] = system: SNB-75 CNS
[13] = system: RXF 393 renal

Structure (SMILES) | TGI [1] | TGI [2] | TGI [3] | TGI [4] | TGI [5] | TGI [6] | TGI [7] | TGI [8] | TGI [9] | TGI [10] | TGI [11] | TGI [12] | TGI [13]
O=C(NCC(C(=O)OCc1ccccc1)C(=O)OCc1ccccc1)OCc1ccccc1 | > 100 µM | > 100 µM | > 100 µM | > 100 µM | > 100 µM | > 100 µM | > 100 µM | > 100 µM | > 100 µM | > 100 µM | > 100 µM | > 100 µM | > 100 µM
CC(C)c1nc2c(Cl)c3ncccc3cc2[nH]c1=O | > 100 µM | > 100 µM | > 100 µM | > 100 µM | > 100 µM | > 100 µM | > 100 µM | > 100 µM | > 100 µM | > 100 µM | > 100 µM | > 100 µM | > 100 µM
O=[N+]([O-])c1ccc(NC(=S)Nc2ccccn2)cc1 | > 100 µM | > 100 µM | > 100 µM | > 100 µM | 63 µM | > 100 µM | > 100 µM | > 85.6 µM | > 100 µM | > 100 µM | > 100 µM | 71.6 µM | 17.8 µM
COC(=O)CCC(C)C1CCC2C3CCC4CC5CCC4(C)C3(O5)C(Br)C(Br)C12C (stereo not given) | > 100 µM | > 100 µM | > 100 µM | > 100 µM | > 100 µM | > 100 µM | > 100 µM | > 100 µM | > 100 µM | > 100 µM | > 100 µM | > 100 µM | > 100 µM
CN(C)c1ccc(N=Nc2cccc3ncccc23)cc1 | > 100 µM | > 100 µM | > 100 µM | > 100 µM | > 100 µM | > 100 µM | > 100 µM | > 100 µM | > 100 µM | > 100 µM | > 100 µM | > 100 µM | > 100 µM
